Each structure is given as a SMILES string. Where only a bound is given, the exact number is not on record here.

Experimental findings from patent US10336697B2, “Spiro[cyclobutane-1,3′-indolin]-2′-one derivatives as bromodomain inhibitors” (Orion Corporation, priority 2015, dated 2019) are described below.

For this experiment, the target named is Bet BRD4 full length bromo-domain protein (Homo sapiens, UniProt O60885). In words: Bet bromodomain TR-FRET assay (displacement of acetyl histone peptide). The class given is binding. Conditions: Bet BRD4 full length bromodomain protein, 300 nM acetyl histone peptide substrate, read-out: IC50.

On to `CN1CCCC(Nc2cc(NS(=O)(=O)c3ccc(F)cc3F)cc3c2NC(=O)C32CCC2)C1` (single isomer, unassigned) [Compound 34, 2,4-Difluoro-N-(7′-((1-methylpiperidin-3-yl)amino)-2′-oxospiro[cyclobutane-1,3′-indolin]-5′-yl)benzenesulfonamide], for which the IC50 is less than 600 nM. The figure for `CN1CCCC(Nc2cc(NS(=O)(=O)c3ccc(F)cc3F)cc3c2NC(=O)C32CCC2)C1` (single isomer, unassigned) [Compound 35, 2,4-Difluoro-N-(7′-((1-methylpiperidin-3-yl)amino)-2′-oxospiro[cyclobutane-1,3′-indolin]-5′-yl)benzenesulfonamide] is 600 to 1000 nM; for `O=C(NC1CCCNC1)c1cc(NS(=O)(=O)c2ccc(F)cc2F)cc2c1NC(=O)C21CCC1` (single isomer, unassigned) [Compound 67, 5′-(2,4-Difluorophenylsulfonamido)-2′-oxo-N-(piperidin-3-yl)spiro[cyclobutane-1,3′-indoline]-7′-carboxamide] it is 600 to 1000 nM. The figure for `O=C(NC1CCCNC1)c1cc(NS(=O)(=O)c2ccc(F)cc2F)cc2c1NC(=O)C21CCC1` (single isomer, unassigned) [Compound 68, 5′-(2,4-Difluorophenylsulfonamido)-2′-oxo-N-(piperidin-3-yl)spiro[cyclobutane-1,3′-indoline]-7′-carboxamide] is less than 600 nM. With `COc1ccccc1S(=O)(=O)Nc1cc(C(C)c2ccccc2)c2c(c1)C1(CCC1)C(=O)N2` (single isomer, unassigned) [Compound 114, 2-Methoxy-N-(2′-oxo-7′-(1-phenylethyl)spiro [cyclobutane-1,3′-indolin]-5′-yl)benzenesulfonamide], the IC50 is less than 600 nM. Take `COc1ccccc1S(=O)(=O)Nc1cc(C(C)c2ccccc2)c2c(c1)C1(CCC1)C(=O)N2` (single isomer, unassigned) [Compound 115, 2-Methoxy-N-(2′-oxo-7′-(1-phenylethyl)spiro [cyclobutane-1,3′-indolin]-5′-yl)benzenesulfonamide]: the IC50 lay within 600 to 1000 nM.

As for `COc1ccccc1S(=O)(=O)Nc1cc(OC(C)c2ccccn2)c2c(c1)C1(CCC1)C(=O)N2` (single isomer, unassigned) [Compound 150, 2-Methoxy-N-(2′-oxo-7′-(1-(pyridin-2-yl)ethoxy)spiro[cyclobutane-1,3′-indolin]-5′-yl)benzenesulfonamide], the IC50 lay within 600 to 1000 nM.

As to `COc1ccccc1S(=O)(=O)Nc1cc(OC(C)c2ccccn2)c2c(c1)C1(CCC1)C(=O)N2` (single isomer, unassigned) [Compound 151, 2-Methoxy-N-(2′-oxo-7′-(1-(pyridin-2-yl)ethoxy)spiro[cyclobutane-1,3′-indolin]-5′-yl)benzenesulfonamide], the IC50 is less than 600 nM. In the case of `COc1ccccc1S(=O)(=O)Nc1cc(OC(C)c2cccnc2)c2c(c1)C1(CCC1)C(=O)N2` (single isomer, unassigned) [Compound 152, 2-methoxy-N-(2′-oxo-7′-(1-(pyridin-3-yl)ethoxy)spiro[cyclobutane-1,3′-indolin]-5′-yl)benzenesulfonamide], the IC50 was less than 600 nM. The figure for `CC(Oc1cc(NS(=O)(=O)c2ccc(Cl)cc2F)cc2c1NC(=O)C21CCC1)c1ccccn1` (single isomer, unassigned) [Compound 155, 4-Chloro-2-fluoro-N-(2′-oxo-7′-(1-(pyridin-2-yl)ethoxy)spiro[cyclobutane-1,3′-indolin]-5′-yl)benzenesulfonamide] is 600 to 1000 nM. The figure for `CC(Oc1cc(NS(=O)(=O)c2ccc(Cl)cc2F)cc2c1NC(=O)C21CCC1)c1ccccn1` (single isomer, unassigned) [Compound 156, 4-Chloro-2-fluoro-N-(2′-oxo-7′-(1-(pyridin-2-yl)ethoxy)spiro[cyclobutane-1,3′-indolin]-5′-yl)benzenesulfonamide] is less than 600 nM; for `COc1ccccc1S(=O)(=O)Nc1cc(C(C)C2CCCN(C)C2)c2c(c1)C1(CCC1)C(=O)N2` (single isomer, unassigned) [Compound 173, 2-Methoxy-N-(7′-(1-(1-methylpiperidin-3-yl)ethyl)-2′-oxospiro[cyclobutane-1,3′-indolin]-5′-yl)benzenesulfonamide] it is more than 1000 nM; for `COc1ccccc1S(=O)(=O)Nc1cc(OC2CCN(C)CC2F)c2c(c1)C1(CCC1)C(=O)N2` (single isomer, unassigned) [compound 191, N-(7′-((3-fluoro-1-methylpiperidin-4-yl)oxy)-2′-oxospiro[cyclobutane-1,3′-indolin]-5′-yl)-2-methoxybenzenesulfonamide] it is less than 600 nM.

For the compound `O=C1Nc2c(-c3cccc(O)c3)cc(NS(=O)(=O)c3ccc(F)cc3F)cc2C12CCC2` [Compound 1, 2,4-difluoro-N-(7′-(3-hydroxyphenyl)-2′-oxospiro[cyclobutane-1,3′-indolin]-5′-yl)benzenesulfonamide], the concentration for half-maximal inhibition (IC50) is less than 600 nM. As for `COc1cc(-c2cc(NS(=O)(=O)c3ccc(F)cc3F)cc3c2NC(=O)C32CCC2)ccn1` [Compound 2, 2,4-Difluoro-N-(7′-(2-methoxypyridin-4-yl)-2′-oxospiro [cyclobutane-1,3′-indolin]-5′-yl)benzenesulfonamide], the IC50 fell in the range of 600 to 1000 nM.

As for `COc1ccc(-c2cc(NS(=O)(=O)c3ccc(F)cc3F)cc3c2NC(=O)C32CCC2)cn1` [Compound 3, 2,4-Difluoro-N-(7′-(6-methoxypyridin-3-yl)-2′-oxospiro [cyclobutane-1,3′-indolin]-5′-yl)benzenesulfonamide], the IC50 was 600 to 1000 nM.

With `O=C1NCCc2ccc(-c3cc(NS(=O)(=O)c4ccc(F)cc4F)cc4c3NC(=O)C43CCC3)cc21` [Compound 4, 2,4-Difluoro-N-(2′-oxo-7′-(1-oxo-1,2,3,4-tetrahydroisoquinolin-7-yl)spiro[cyclobutane-1,3′-indolin]-5′-yl)benzenesulfonamide], the IC50 is less than 600 nM. As for `Cn1cnc2ccc(-c3cc(NS(=O)(=O)c4ccc(F)cc4F)cc4c3NC(=O)C43CCC3)cc21` [Compound 5, 2,4-Difluoro-N-(7′-(1-methyl-1H-benzo[d]imidazol-6-yl)-2′-oxospiro[cyclobutane-1,3′-indolin]-5′-yl)benzene sulphonamide], the IC50 is less than 600 nM. For `CN1CCc2ccc(-c3cc(NS(=O)(=O)c4ccc(F)cc4F)cc4c3NC(=O)C43CCC3)cc2C1=O` [Compound 6, 2,4-Difluoro-N-(7′-(2-methyl-1-oxo-1,2,3,4-tetrahydroisoquinolin-7-yl)-2′-oxospiro[cyclobutane-1,3′-indolin]-5′-yl)benzenesulfonamide], the IC50 was in the range of 600 to 1000 nM.

Take `O=C1Nc2c(-c3ccc4cn[nH]c4c3)cc(NS(=O)(=O)c3ccc(F)cc3F)cc2C12CCC2` [Compound 7, N-(7′-(1H-indazol-6-yl)-2′-oxospiro[cyclobutane-1,3′-indolin]-5′-yl)-2,4-difluorobenzenesulfonamide]: the IC50 lay in the range of 600 to 1000 nM.

`O=C1Nc2c(-c3ccc4nc[nH]c4c3)cc(NS(=O)(=O)c3ccc(F)cc3F)cc2C12CCC2` [Compound 8, N-(7′-(1H-benzo[d]imidazol-6-yl)-2′-oxospiro[cyclobutane-1,3′-indolin]-5′-yl)-2,4-difluorobenzenesulfonamide]: the IC50 was 600 to 1000 nM.
